Results from ChEMBL document CHEMBL4507319 (2021).

Experiments:
[1] = molecular target: 5-hydroxytryptamine receptor 2C (Homo sapiens) (UniProt P28335); settings: Compound concentration 10.0 uM
[2] = molecular target: Alpha-2B adrenergic receptor (Homo sapiens) (UniProt P18089); settings: Compound concentration 10.0 uM
[3] = molecular target: Fibroblast growth factor receptor 4 (Homo sapiens) (UniProt P22455); settings: Compound concentration 1000.0 nM
[4] = molecular target: T1, Serine/threonine-protein kinase Nek9 (Homo sapiens) (UniProt Q8TD19); settings: Compound concentration 1000.0 nM
T1 sequence (whole entry): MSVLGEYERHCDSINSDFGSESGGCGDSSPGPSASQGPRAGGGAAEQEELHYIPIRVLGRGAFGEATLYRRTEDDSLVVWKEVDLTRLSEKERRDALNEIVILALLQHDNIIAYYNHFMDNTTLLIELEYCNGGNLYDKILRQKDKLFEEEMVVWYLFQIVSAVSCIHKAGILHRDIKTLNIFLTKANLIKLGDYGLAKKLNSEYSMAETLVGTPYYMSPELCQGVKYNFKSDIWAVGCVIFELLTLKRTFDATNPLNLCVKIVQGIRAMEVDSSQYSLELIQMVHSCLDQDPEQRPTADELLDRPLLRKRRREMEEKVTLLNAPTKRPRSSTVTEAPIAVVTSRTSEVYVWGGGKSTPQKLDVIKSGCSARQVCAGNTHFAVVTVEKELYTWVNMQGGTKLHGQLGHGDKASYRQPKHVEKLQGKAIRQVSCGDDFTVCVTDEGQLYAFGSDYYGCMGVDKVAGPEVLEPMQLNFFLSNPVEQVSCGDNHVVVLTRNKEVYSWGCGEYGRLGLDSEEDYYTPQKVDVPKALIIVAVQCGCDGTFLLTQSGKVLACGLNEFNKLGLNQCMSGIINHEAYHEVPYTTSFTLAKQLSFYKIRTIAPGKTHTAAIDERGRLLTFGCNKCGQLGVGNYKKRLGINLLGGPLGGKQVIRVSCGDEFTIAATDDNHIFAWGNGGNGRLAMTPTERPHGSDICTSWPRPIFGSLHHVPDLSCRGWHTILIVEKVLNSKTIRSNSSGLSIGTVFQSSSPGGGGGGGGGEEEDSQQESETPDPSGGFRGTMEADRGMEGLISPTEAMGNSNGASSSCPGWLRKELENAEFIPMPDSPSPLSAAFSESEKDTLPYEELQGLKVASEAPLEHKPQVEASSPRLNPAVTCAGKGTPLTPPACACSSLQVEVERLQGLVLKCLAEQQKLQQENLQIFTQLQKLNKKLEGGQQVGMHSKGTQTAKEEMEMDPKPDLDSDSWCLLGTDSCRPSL

[5] = molecular target: Tyrosine-protein kinase JAK1 (Homo sapiens) (UniProt P23458); settings: Compound concentration 1000.0 nM
Tyrosine-protein kinase JAK1 (Homo sapiens), sequence (P23458 whole entry): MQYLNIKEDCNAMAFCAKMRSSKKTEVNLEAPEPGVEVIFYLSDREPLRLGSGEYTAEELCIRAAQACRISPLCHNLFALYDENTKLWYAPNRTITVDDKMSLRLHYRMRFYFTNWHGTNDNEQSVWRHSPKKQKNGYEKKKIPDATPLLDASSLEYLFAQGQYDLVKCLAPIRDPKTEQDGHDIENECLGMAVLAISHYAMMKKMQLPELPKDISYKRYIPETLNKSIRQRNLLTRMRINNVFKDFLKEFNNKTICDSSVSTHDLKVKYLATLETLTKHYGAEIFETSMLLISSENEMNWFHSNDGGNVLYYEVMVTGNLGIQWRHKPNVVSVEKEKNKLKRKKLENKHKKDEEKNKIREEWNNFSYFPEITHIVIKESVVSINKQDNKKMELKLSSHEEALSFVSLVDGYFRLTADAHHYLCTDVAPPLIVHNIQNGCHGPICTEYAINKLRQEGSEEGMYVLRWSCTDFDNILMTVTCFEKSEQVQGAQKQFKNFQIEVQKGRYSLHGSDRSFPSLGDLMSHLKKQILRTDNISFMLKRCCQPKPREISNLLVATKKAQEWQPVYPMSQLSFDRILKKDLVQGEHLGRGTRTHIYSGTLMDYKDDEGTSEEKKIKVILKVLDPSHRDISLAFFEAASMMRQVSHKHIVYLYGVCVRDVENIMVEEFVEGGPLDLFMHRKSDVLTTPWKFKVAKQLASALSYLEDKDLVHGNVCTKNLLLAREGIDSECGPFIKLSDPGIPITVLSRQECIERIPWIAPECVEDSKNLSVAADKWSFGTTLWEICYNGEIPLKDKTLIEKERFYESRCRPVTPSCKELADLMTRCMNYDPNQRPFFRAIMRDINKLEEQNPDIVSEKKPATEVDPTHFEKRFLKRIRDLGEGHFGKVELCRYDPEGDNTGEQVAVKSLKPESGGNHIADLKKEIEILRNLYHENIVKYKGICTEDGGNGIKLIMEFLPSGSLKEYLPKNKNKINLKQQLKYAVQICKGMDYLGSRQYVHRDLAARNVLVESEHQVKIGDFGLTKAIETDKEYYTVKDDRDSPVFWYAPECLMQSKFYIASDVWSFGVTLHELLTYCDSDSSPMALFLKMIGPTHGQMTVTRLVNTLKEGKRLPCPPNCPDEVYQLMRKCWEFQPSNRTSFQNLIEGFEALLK

[6] = molecular target: Non-receptor tyrosine-protein kinase TNK1 (Homo sapiens) (UniProt Q13470); settings: Compound concentration 1000.0 nM
[7] = system: Tyrosine-protein kinase ABL1 (Homo sapiens), P00519 [T315I]; settings: Compound concentration 1000.0 nM
[8] = system: Proto-oncogene tyrosine-protein kinase receptor Ret (Homo sapiens), P07949 [M918T]; settings: Compound concentration 1000.0 nM
Proto-oncogene tyrosine-protein kinase receptor Ret (Homo sapiens), P07949 [M918T], sequence (P07949 whole entry M918T): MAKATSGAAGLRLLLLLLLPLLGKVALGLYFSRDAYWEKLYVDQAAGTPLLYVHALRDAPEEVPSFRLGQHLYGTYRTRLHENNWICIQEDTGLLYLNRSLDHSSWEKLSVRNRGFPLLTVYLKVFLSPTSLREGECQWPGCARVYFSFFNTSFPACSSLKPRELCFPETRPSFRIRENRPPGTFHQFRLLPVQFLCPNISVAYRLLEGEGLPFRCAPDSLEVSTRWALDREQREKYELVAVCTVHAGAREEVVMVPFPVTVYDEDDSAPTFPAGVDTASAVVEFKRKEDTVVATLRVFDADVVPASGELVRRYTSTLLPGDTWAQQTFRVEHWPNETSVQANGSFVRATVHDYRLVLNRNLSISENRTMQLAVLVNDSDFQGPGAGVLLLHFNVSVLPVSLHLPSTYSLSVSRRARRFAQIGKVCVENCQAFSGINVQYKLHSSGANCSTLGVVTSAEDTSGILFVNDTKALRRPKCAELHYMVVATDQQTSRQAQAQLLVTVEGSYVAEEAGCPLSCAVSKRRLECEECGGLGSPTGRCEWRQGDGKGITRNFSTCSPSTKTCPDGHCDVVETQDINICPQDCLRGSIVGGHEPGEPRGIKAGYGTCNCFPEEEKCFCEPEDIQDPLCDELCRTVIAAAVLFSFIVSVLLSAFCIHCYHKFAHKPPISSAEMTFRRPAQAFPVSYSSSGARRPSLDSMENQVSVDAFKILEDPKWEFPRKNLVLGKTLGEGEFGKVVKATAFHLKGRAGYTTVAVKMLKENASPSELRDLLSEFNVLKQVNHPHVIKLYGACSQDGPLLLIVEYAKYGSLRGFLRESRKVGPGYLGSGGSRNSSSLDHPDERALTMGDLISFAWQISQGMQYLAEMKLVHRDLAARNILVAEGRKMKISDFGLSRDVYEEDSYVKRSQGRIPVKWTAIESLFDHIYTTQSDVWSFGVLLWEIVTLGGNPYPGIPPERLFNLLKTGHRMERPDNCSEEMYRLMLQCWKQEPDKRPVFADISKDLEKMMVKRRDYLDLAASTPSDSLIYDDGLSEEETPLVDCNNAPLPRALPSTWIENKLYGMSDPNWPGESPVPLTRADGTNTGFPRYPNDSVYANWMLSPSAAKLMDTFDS

[9] = molecular target: Serine/threonine-protein kinase MRCK gamma (Homo sapiens) (UniProt Q6DT37); settings: Compound concentration 1000.0 nM
[10] = molecular target: Serine/threonine-protein kinase NIM1 (Homo sapiens) (UniProt Q8IY84); settings: Compound concentration 1000.0 nM
Serine/threonine-protein kinase NIM1 (Homo sapiens), sequence (Q8IY84 whole entry): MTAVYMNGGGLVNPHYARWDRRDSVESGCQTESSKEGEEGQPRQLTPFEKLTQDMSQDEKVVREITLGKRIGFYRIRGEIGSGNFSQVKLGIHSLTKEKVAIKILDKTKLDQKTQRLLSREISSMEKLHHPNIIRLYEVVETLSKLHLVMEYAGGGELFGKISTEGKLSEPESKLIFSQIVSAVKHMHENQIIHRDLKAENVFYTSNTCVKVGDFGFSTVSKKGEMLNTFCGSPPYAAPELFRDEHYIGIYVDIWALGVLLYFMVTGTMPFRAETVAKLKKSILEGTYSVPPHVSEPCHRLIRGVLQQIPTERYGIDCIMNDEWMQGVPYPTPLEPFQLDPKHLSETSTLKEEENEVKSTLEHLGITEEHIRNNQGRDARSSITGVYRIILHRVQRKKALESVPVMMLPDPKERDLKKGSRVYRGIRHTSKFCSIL

[11] = molecular target: Mitogen-activated protein kinase 6 (Homo sapiens) (UniProt Q16659); settings: Compound concentration 1000.0 nM
Mitogen-activated protein kinase 6 (Homo sapiens), sequence (Q16659 whole entry): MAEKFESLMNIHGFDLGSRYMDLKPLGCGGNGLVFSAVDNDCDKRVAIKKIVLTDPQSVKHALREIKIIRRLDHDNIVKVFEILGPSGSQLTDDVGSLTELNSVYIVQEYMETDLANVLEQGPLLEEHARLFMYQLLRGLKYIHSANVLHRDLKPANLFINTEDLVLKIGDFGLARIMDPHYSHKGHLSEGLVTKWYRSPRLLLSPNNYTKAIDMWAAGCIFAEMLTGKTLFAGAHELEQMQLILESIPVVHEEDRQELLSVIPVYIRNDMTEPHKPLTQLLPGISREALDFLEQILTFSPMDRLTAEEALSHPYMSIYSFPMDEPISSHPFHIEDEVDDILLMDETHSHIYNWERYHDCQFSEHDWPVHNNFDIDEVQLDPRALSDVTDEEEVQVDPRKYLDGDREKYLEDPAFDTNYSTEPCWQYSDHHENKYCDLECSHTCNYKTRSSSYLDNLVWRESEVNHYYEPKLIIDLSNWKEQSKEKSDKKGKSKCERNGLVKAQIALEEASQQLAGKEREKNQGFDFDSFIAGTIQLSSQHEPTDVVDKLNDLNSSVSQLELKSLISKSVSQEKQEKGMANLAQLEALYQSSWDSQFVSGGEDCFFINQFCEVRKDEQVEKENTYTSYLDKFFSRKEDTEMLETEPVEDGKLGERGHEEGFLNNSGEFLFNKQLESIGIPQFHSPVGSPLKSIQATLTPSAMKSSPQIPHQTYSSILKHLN

[12] = molecular target: T2, Homeodomain-interacting protein kinase 4 (Homo sapiens) (UniProt Q8NE63); settings: Compound concentration 1000.0 nM
T2 sequence (whole entry): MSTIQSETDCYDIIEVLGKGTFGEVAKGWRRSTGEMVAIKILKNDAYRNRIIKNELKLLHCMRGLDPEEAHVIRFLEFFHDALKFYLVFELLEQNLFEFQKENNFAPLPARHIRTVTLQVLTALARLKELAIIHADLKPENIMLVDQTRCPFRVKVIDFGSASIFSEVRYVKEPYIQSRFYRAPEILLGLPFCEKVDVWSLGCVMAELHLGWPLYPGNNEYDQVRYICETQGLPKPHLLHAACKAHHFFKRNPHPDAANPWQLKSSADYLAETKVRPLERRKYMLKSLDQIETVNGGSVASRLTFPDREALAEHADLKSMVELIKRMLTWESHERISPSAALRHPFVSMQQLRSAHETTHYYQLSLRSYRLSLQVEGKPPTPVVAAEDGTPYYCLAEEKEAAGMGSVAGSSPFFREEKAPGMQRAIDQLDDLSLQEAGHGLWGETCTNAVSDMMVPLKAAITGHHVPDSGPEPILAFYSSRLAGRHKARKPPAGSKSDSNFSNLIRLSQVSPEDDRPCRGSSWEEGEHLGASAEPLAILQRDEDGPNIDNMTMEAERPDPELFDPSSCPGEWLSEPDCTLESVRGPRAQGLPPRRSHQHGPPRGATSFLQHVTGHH

[13] = molecular target: Interleukin-1 receptor-associated kinase 3 (Homo sapiens) (UniProt Q9Y616); settings: Compound concentration 1000.0 nM
[14] = system: Phosphatidylinositol 4,5-bisphosphate 3-kinase catalytic subunit alpha isoform (Homo sapiens), P42336 [M1043I]; settings: Compound concentration 1000.0 nM
[15] = system: Phosphatidylinositol 4,5-bisphosphate 3-kinase catalytic subunit alpha isoform (Homo sapiens), P42336 [E545A]; settings: Compound concentration 1000.0 nM
[16] = molecular target: Serine/threonine-protein kinase TAO1 (Homo sapiens) (UniProt Q7L7X3); settings: Compound concentration 1000.0 nM
[17] = molecular target: RAF proto-oncogene serine/threonine-protein kinase (Homo sapiens) (UniProt P04049); settings: Compound concentration 1000.0 nM
[18] = molecular target: Serine/threonine-protein kinase TNNI3K (Homo sapiens) (UniProt Q59H18); settings: Compound concentration 1000.0 nM
Serine/threonine-protein kinase TNNI3K (Homo sapiens), sequence (Q59H18 whole entry): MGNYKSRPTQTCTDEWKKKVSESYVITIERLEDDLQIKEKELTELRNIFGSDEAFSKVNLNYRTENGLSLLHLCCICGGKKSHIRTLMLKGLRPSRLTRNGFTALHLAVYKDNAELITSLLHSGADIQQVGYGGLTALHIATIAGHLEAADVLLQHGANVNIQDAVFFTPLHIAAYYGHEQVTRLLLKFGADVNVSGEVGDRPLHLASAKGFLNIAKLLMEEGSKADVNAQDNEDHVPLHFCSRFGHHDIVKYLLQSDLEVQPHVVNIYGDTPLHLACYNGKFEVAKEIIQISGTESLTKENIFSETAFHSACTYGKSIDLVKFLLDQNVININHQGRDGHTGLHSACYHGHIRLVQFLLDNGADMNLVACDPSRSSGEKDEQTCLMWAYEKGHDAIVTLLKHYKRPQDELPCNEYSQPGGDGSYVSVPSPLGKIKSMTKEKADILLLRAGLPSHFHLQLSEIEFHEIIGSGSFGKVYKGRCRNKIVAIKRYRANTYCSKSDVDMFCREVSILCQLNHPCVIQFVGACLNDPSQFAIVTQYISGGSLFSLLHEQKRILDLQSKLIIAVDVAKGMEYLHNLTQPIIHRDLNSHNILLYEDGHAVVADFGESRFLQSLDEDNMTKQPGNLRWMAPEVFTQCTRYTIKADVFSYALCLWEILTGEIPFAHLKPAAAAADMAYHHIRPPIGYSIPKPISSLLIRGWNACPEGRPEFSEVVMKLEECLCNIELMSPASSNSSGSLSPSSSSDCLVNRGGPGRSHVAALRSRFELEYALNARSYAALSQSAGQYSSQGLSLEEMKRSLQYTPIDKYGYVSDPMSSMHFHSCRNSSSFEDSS

[19] = molecular target: Serine/threonine-protein kinase WNK4 (Homo sapiens) (UniProt Q96J92); settings: Compound concentration 1000.0 nM
[20] = system: Mast/stem cell growth factor receptor Kit (Homo sapiens), P10721 [L576P]; settings: Compound concentration 1000.0 nM
[21] = system: Tyrosine-protein kinase ABL1 (Homo sapiens), P00519 [F317I]; settings: Compound concentration 1000.0 nM
[22] = molecular target: Epidermal growth factor receptor (Homo sapiens) (UniProt P00533); settings: Compound concentration 1000.0 nM

Alpha-2B adrenergic receptor (Homo sapiens), sequence (P18089 whole entry): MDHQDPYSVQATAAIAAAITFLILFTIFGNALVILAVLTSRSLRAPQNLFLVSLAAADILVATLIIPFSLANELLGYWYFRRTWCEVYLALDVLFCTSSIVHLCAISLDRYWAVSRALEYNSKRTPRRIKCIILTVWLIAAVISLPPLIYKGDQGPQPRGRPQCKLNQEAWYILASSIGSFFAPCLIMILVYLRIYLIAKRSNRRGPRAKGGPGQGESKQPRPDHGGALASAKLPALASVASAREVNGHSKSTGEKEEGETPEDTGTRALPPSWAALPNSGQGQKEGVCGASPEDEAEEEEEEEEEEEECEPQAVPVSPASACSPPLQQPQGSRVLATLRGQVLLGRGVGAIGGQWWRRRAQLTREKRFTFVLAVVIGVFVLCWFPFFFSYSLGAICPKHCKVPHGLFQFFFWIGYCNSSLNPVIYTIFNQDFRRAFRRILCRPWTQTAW

CCc1ccccc1C(=O)Nc1n[nH]c2c(C)c(F)c(C3C(C#N)=C(C)N(C)C(C)=C3C#N)cc12 [BAY-3827]
inactive: inhibition [1] 20% | inhibition [2] 10.6% | residual activity [3] 100% | residual activity [4] 93% | residual activity [5] 97% | residual activity [6] 100% | residual activity [7] 72% | residual activity [8] 64% | residual activity [9] 93% | residual activity [10] 100% | residual activity [11] 100% | residual activity [12] 100% | residual activity [13] 98% | residual activity [14] 75% | residual activity [15] 100% | residual activity [16] 100% | residual activity [17] 63% | residual activity [18] 87% | residual activity [19] 94% | residual activity [20] 91% | residual activity [21] 100% | residual activity [22] 85%

CC1=C(C#N)C(c2ccc3c(c2)c(NC(=O)c2ccccc2C)nn3C)C(C#N)=C(C)N1 [BAY-974]
inactive: inhibition [1] 22.5% | inhibition [2] 20.7% | residual activity [3] 100% | residual activity [4] 100% | residual activity [5] 100% | residual activity [6] 76% | residual activity [7] 97% | residual activity [8] 100% | residual activity [9] 92% | residual activity [10] 86% | residual activity [11] 97% | residual activity [12] 80% | residual activity [13] 79% | residual activity [14] 100% | residual activity [15] 71% | residual activity [16] 100% | residual activity [17] 100% | residual activity [18] 96% | residual activity [19] 95% | residual activity [20] 100% | residual activity [21] 78% | residual activity [22] 84%
